Test results: ChEMBL document CHEMBL1201862, “PubChem BioAssay data set” (2004)
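Grown in 96-well plates, cells were treated for 48 hours with each compound at five concentrations. Insufficient inhibition: endpoint recorded as highest concentration tested. GI50 = concentration required for 50% inhibition of growth.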 Calls of active or inactive are those of the source. No stated cut-off is given here; in the data, active = GI50 up to about 1.1 µM and inactive = higher.

Columns and labels:
Test in all cases: NCI-60 cell line screen, 48 h
SF-539 = tested on: SF-539
TK-10 = tested on: TK-10
HCT-15 = tested on: HCT-15
SNB-75 = tested on: SNB-75
NCI-H23 = tested on: NCI-H23
SF-268 = tested on: SF-268
HOP-92 = tested on: HOP-92
MCF7 = tested on: MCF7
SK-MEL-28 = tested on: SK-MEL-28
OVCAR-3 = tested on: OVCAR-3
CCRF-CEM = tested on: CCRF-CEM
K562 = tested on: K562
NCI-H460 = tested on: NCI-H460
SF-295 = tested on: SF-295
SK-MEL-2 = tested on: SK-MEL-2
HT-29 = tested on: HT-29
Hs-578T = tested on: Hs-578T
SN12C = tested on: SN12C
A498 = tested on: A498
RXF 393 = tested on: RXF 393

SMILES	GI50 (SF-539)	GI50 (TK-10)	GI50 (HCT-15)	GI50 (SNB-75)	GI50 (NCI-H23)	GI50 (SF-268)	GI50 (HOP-92)	GI50 (MCF7)	GI50 (SK-MEL-28)	GI50 (OVCAR-3)	GI50 (CCRF-CEM)	GI50 (K562)	GI50 (NCI-H460)	GI50 (SF-295)	GI50 (SK-MEL-2)	GI50 (HT-29)	GI50 (Hs-578T)	GI50 (SN12C)	GI50 (A498)	GI50 (RXF 393)
CNC(=O)CN(C)C(=O)CCC(=O)N(C)C	> 100 µM (inactive)	> 100 µM (inactive)	> 100 µM	> 100 µM (inactive)	> 100 µM (inactive)	> 100 µM (inactive)	> 100 µM (inactive)	> 100 µM (inactive)	> 100 µM (inactive)	> 100 µM (inactive)	> 100 µM (inactive)	> 100 µM (inactive)	> 100 µM (inactive)	> 100 µM (inactive)	> 100 µM (inactive)	> 100 µM (inactive)	> 100 µM (inactive)	> 100 µM (inactive)	> 100 µM (inactive)	–
C1CSCCSCCSCCSCCS1	> 100 µM (inactive)	> 100 µM (inactive)	> 100 µM	> 100 µM (inactive)	> 100 µM (inactive)	> 100 µM (inactive)	> 100 µM (inactive)	> 100 µM (inactive)	> 100 µM (inactive)	> 100 µM (inactive)	–	> 100 µM (inactive)	> 100 µM (inactive)	> 100 µM (inactive)	> 100 µM (inactive)	> 100 µM (inactive)	> 100 µM (inactive)	> 100 µM (inactive)	> 100 µM (inactive)	> 100 µM (inactive)
CC12CCC(C(Br)(Br)C1=O)C2(C)C (stereo not drawn)	2.94 µM (inactive)	2.09 µM (inactive)	0.164 µM	0.711 µM (active)	0.123 µM (active)	0.0989 µM (active)	0.617 µM (active)	0.082 µM (active)	0.826 µM (active)	0.507 µM (active)	< 0.0166 µM (active)	< 0.0202 µM (active)	4.05 µM (inactive)	3.49 µM (inactive)	–	0.228 µM (active)	0.251 µM (active)	0.904 µM (active)	3.68 µM (inactive)	0.183 µM (active)
O=C(/C=C/c1ccccc1)Oc1cccc(Br)c1	39.9 µM (inactive)	> 100 µM (inactive)	18.2 µM	45.3 µM (inactive)	> 100 µM (inactive)	24.3 µM (inactive)	91 µM (inactive)	20.5 µM (inactive)	> 100 µM (inactive)	78.2 µM (inactive)	–	–	> 100 µM (inactive)	24.4 µM (inactive)	> 100 µM (inactive)	30.5 µM (inactive)	16.6 µM (inactive)	> 100 µM (inactive)	61.8 µM (inactive)	56.8 µM (inactive)
CCN(CC)CCOc1ccc(N2C(=O)c3cc(OC)c(OC)cc3C2=O)cc1	> 100 µM (inactive)	> 100 µM (inactive)	> 100 µM	–	> 100 µM (inactive)	> 100 µM (inactive)	> 100 µM (inactive)	> 100 µM (inactive)	> 100 µM (inactive)	> 100 µM (inactive)	> 100 µM (inactive)	> 100 µM (inactive)	> 100 µM (inactive)	> 100 µM (inactive)	> 100 µM (inactive)	> 100 µM (inactive)	> 100 µM (inactive)	> 100 µM (inactive)	> 100 µM (inactive)	> 100 µM (inactive)
CCN(CC)C(=S)SNc1ccc(S(N)(=O)=O)cc1	> 76.6 µM (inactive)	> 100 µM (inactive)	> 77.4 µM	> 72.9 µM (inactive)	> 100 µM (inactive)	> 75.7 µM (inactive)	> 56.2 µM (inactive)	0.0383 µM (active)	33.4 µM (inactive)	–	–	> 100 µM (inactive)	38.7 µM (inactive)	> 66.5 µM (inactive)	> 63.1 µM (inactive)	24.6 µM (inactive)	> 100 µM (inactive)	68.1 µM (inactive)	> 100 µM (inactive)	44.4 µM (inactive)
O=C(CN1CCNCCN(CC(=O)N2CCCCC2)CCNCC1)N1CCCCC1	> 100 µM (inactive)	> 100 µM (inactive)	> 100 µM	> 100 µM (inactive)	–	–	> 100 µM (inactive)	> 100 µM (inactive)	> 100 µM (inactive)	> 100 µM (inactive)	52.4 µM (inactive)	40.3 µM (inactive)	43 µM (inactive)	> 100 µM (inactive)	> 100 µM (inactive)	18.2 µM (inactive)	> 100 µM (inactive)	> 100 µM (inactive)	> 100 µM (inactive)	–
CO[C@@H]1C[C@H]2[C@@H]3CC[C@H]([C@@H](C)COC(C)=O)[C@@]3(C)CC[C@@H]2[C@@]2(C)CC[C@H]3C[C@]312	17.5 µM (inactive)	> 10 µM (inactive)	13.3 µM	17.9 µM (inactive)	12.8 µM (inactive)	17.9 µM (inactive)	19.9 µM (inactive)	9.48 µM (inactive)	17.1 µM (inactive)	14.6 µM (inactive)	14.9 µM (inactive)	10.2 µM (inactive)	10.1 µM (inactive)	15.1 µM (inactive)	–	6.92 µM (inactive)	18.5 µM (inactive)	16.5 µM (inactive)	20 µM (inactive)	17.7 µM (inactive)
[N-]=[N+]=CC(=O)OCC1NC(=O)C(COC(=O)C=[N+]=[N-])NC1=O (stereo not drawn)	> 100 µM (inactive)	> 100 µM (inactive)	> 100 µM	> 100 µM (inactive)	> 100 µM (inactive)	> 100 µM (inactive)	> 100 µM (inactive)	> 100 µM (inactive)	> 100 µM (inactive)	> 100 µM (inactive)	> 100 µM (inactive)	> 100 µM (inactive)	> 100 µM (inactive)	> 100 µM (inactive)	> 100 µM (inactive)	> 100 µM (inactive)	> 100 µM (inactive)	> 100 µM (inactive)	> 100 µM (inactive)	–
CC(C)(C)OC(=O)N1C(=O)OC[C@@H]2C=C[C@@H]21	> 100 µM (inactive)	> 100 µM (inactive)	> 100 µM	–	> 100 µM (inactive)	> 100 µM (inactive)	> 100 µM (inactive)	> 100 µM (inactive)	> 100 µM (inactive)	> 100 µM (inactive)	> 100 µM (inactive)	–	> 100 µM (inactive)	> 100 µM (inactive)	> 100 µM (inactive)	> 100 µM (inactive)	> 100 µM (inactive)	> 100 µM (inactive)	> 100 µM (inactive)	> 100 µM (inactive)
Nc1nc(N)c2ncn(Cc3c(Cl)cccc3Cl)c2n1	> 100 µM (inactive)	> 100 µM (inactive)	> 100 µM	1.6 µM (inactive)	> 100 µM (inactive)	> 100 µM (inactive)	> 100 µM (inactive)	> 100 µM (inactive)	> 100 µM (inactive)	> 100 µM (inactive)	> 100 µM (inactive)	–	–	> 100 µM (inactive)	> 100 µM (inactive)	> 100 µM (inactive)	> 100 µM (inactive)	> 100 µM (inactive)	> 100 µM (inactive)	> 100 µM (inactive)
Cc1nnc(N)nc1/C=C\c1cccs1	–	32.4 µM (inactive)	10.2 µM	–	17.6 µM (inactive)	19.5 µM (inactive)	18.4 µM (inactive)	13.9 µM (inactive)	28.8 µM (inactive)	–	16.7 µM (inactive)	23.4 µM (inactive)	14.7 µM (inactive)	21.4 µM (inactive)	14.6 µM (inactive)	14.1 µM (inactive)	19.9 µM (inactive)	> 10 µM (inactive)	22 µM (inactive)	19.5 µM (inactive)
C[C@]12CC[C@@H]3c4ccc(O)cc4CC[C@H]3[C@@H]1C/C(=C\c1ccncc1)[C@@H]2O	–	22.9 µM (inactive)	4.22 µM	2.98 µM (inactive)	3.1 µM (inactive)	8.55 µM (inactive)	5.32 µM (inactive)	10.1 µM (inactive)	22.3 µM (inactive)	11.5 µM (inactive)	9.75 µM (inactive)	–	6.32 µM (inactive)	4.29 µM (inactive)	11.4 µM (inactive)	15.1 µM (inactive)	4.42 µM (inactive)	26.9 µM (inactive)	5.78 µM (inactive)	2.5 µM (inactive)
Cc1c(C)c(C)c(Cn2[nH]c(=O)n(C)c2=O)c(C)c1C	> 100 µM (inactive)	> 100 µM (inactive)	> 100 µM	> 100 µM (inactive)	> 100 µM (inactive)	> 100 µM (inactive)	> 100 µM (inactive)	> 100 µM (inactive)	> 100 µM (inactive)	–	> 100 µM (inactive)	> 100 µM (inactive)	> 100 µM (inactive)	> 100 µM (inactive)	> 100 µM (inactive)	> 100 µM (inactive)	> 100 µM (inactive)	> 100 µM (inactive)	> 100 µM (inactive)	–
CC(C)(C)OC(=O)NCCC1CN(C(=O)c2ccccc2)c2ccccc21 (stereo not drawn)	–	56.2 µM (inactive)	29.9 µM	28.7 µM (inactive)	26.3 µM (inactive)	41.3 µM (inactive)	26.5 µM (inactive)	28.2 µM (inactive)	32.7 µM (inactive)	15.9 µM (inactive)	–	27 µM (inactive)	22.9 µM (inactive)	29.4 µM (inactive)	27.7 µM (inactive)	23.2 µM (inactive)	43.5 µM (inactive)	–	> 100 µM (inactive)	28 µM (inactive)
